Experimental data from EP4413991A1, “PEPTIDE FOR COGNITIVE IMPROVEMENT” (Consejo Superior De Investigaciones Científicas, priority 2023, dated 2024).

How the values were obtained:
Assay type in all cases: in vivo, C57BL/6 mice
old mice (~20 months) [1] = experiment: Novel object recognition test (NOR), memory index; settings: single intrahippocampal injection, versus vehicle; for recognition memory at short term: 2 hours after training trial; for recognition memory at long-term: 5 days after training trial
Method: (§1) Different experimental group of old mice (~20 months of age) were randomly injected on the hilus region of both brain hemispheres with vehicle (PBS or destillated water) or with one of four different molecules: Vitamin B12 (50 mg/ml; Vet one, ref: 510218), S-(5'-Adenosyl)-L-methionine chloride (0,25 mg/ml; Sigma, ref: A7007), folic acid (0,25 mg/ml; Sigma, ref: F7876-10G) or synthetic FRa binding peptide, peptide having amino acid sequence SEQ ID NO: 1, (2,5 mg/ml and 5 mg/ml, diluted in PBS; Abyntec). The pH of Vitamin B12, methionine or folic acid were adjusted to ~7 to avoid negative effects due to overly acidic medium. One week after intracerebral injections, mice were assessed with behavioural (open field trial) and memory tests (novel object recognition) to study potential functional effects of different metabolites on central nervous system. Two weeks after surgeries mice were finally perfused just after finalized Y maze test performing.
(§2) After anesthesia with isofluorane, mice were secured in a stereotaxic frame (Kopf). Holes were drilled bilaterally in the skull at the injection sites (one per hemisphere) by microdrill with 0.5 mm drill bit. Stereotaxic coordinates used for intrahippocampal injections were as follows (from bregma): anterior-posterior 2.2, lateral 1.4, dorsoventral 2.0. A 33-gauge needle Hamilton syringe coupled to a syring pump controller mounted to the stereotaxic frame was used to inject 2µl of vehicle or metabolites at each site. Injections occurred at a rate of 0.25 µl/min, after which the needle was left in place for an additional 3 min, stopping another 3 minute in the halfway. After injections were completed, the skin was sutured and the animals were allowed to recover for 1 h on a heating pad before returning to the home cage. Mice remained in the home cage for an additional 1 week before the start of behavioral testing, being sacrificed 2 weeks after surgery.
Both open field (OF) and novel object recognition (NOR) tests were performed as described previously (Rodríguez-Matellán A, et al., In Vivo Reprogramming Ameliorates Aging Features in Dentate Gyrus Cells and Improves Memory in Mice. Stem Cell Reports. 2020 Nov 10;15(5):1056-1066. ). Locomotor activity as well as anxiety and depression-like behaviours in old mice were evaluated using OF. This test was used as habituation of NOR test. In brief, on the first day, the mice were placed individually for 10 min in a 45x45-cm plastic box with vertical opaque walls. Each session was recorded and different data like distance, speed, immobile time and time on center square of the box were analysed with Anymaze software. On the second day, mice were placed in the same box for 5 min, allowing them to explore two identical objects: A and B (two black rooks). Both objects were placed on the long axis of the cage, each 13 cm from the cage end. After each exposure, the objects and the cage were wiped with 70% ethanol to eliminate odors which potentially could condition successive mice behaviour. Two hours after the familiarization trial, each mouse was released into the box with the same object previously used (object A) and a new one (object C, a tower of coloured plastic pieces), instead of the object B (short-term memory test). The position of object C was the same as that of object B in the familiarization trial. The mice were given 5 min to explore the box. Five days later, the mice were released again into the box, with object A in the same position and another new object (object D, a falcon tube filled with wood chips) in the same position of the object C in the previous test. Again, animals were allowed 5 min to explore the box (Long-term memory test). Animals were considered to show recognition when their head was <2 cm from the object.
The memory index (Ml) was used to measure recognition memory performance. […]

GluN2B = GluN2B immunoreactivity in molecular layer of dentate gyrus; settings: single intrahippocampal injection, versus vehicle
Method: as §1
(§3) After anesthesia with isofluorane, mice were secured in a stereotaxic frame (Kopf). Holes were drilled bilaterally in the skull at the injection sites (one per hemisphere) by microdrill with 0.5 mm drill bit. […]
For GluN2B antibodies, the quantification was carried out with the imaged program by measuring the percentage of area occupied by the receptor immunoreactivity in the molecular layer of dentate gyrus. […]

[2] = system: neuronal precursors cells; experiment: Adult neurogenesis markers in dentate gyrus, immunofluorescence cell density; settings: subgranular zone; unique dose hippocampal injection; versus vehicle
Method: as §1, §2
Mice received three injections each 2 hours (200 ul/injection, in alternative sides of body) of 5-Chloro-2'-deoxy-Uridine (CldU, Sigma reference C6891; i.p. 42.75 mg/Kg bw) one week after cranial surgery and microinjections of solutions. In this way we were able to follow the effects of treatment in the proliferation of new cells at the subgranular zone, essential zone for neurogenesis process. […]
(§4) Quantifications for density of DCX/Blbp/CIdU-immunoreactive positive cells were performed by counting in four different consecutive medial brain sections the number of cells localized in each whole DG (distinguishing between SGZ and GCL) and the adjacent hilus region. For perineuronal nets of extracellular matrix, positive units labelled with WFA were counted in the dentate gyrus (including granular cell layer and hilus) from three different consecutive medial brain sections. […]

perineuronal nets (PNN) = experiment: Perineuronal nets (PNN) density labeled with WFA in dentate gyrus; settings: single intrahippocampal injection, versus vehicle-injected aged mice
Method: as §1, with “Two weeks after surgeries mice were finally perfused just after finalized Y maze test performing.” left out
as §4

[3] = system: 5-hydroxymethylcytosine (5hmc); experiment: DNA hydroxymethylation in hippocampal neuronal layers; settings: versus vehicle
Method: as §1
as §3, with “bit. Stereotaxic coordinates used for intrahippocampal injections were as follows (from bregma): anterior-posterior 2.2, lateral 1.4, dorsoventral 2.0.” for “bit.”

H3K9me3 = experiment: Histone methylation immunofluorescence in dentate gyrus; settings: 14 days since injection, versus vehicle
Method: as §1
(§5) After anesthesia with isofluorane, mice were secured in a stereotaxic frame (Kopf). […]
(§6) For 5mC, H3K9me3 and H4K20me3 antibodies, acquisition confocal settings (laser intensity, gain, pinhole) were kept constant for all images, which were captured in the same confocal session. […] The area above the threshold was then measured in Fiji and the mean fluorescence in the ROI was calculated and compared between vehicle and folate experimental groups.

H4K20me3 = experiment: as above; settings: 14 days since injection, versus vehicle
Method: as §1, §5, §6

old mice (~20 months) [4] = experiment: Open field test (OF); settings: single bilateral intrahippocampal (hilus) injection, 2µl per site; tested one week after surgery; versus vehicle
Method: as §1, §2
Both open field (OF) and novel object recognition (NOR) tests were performed as described previously (Rodríguez-Matellán A, et al., In Vivo Reprogramming Ameliorates Aging Features in Dentate Gyrus Cells and Improves Memory in Mice. Stem Cell Reports. 2020 Nov 10;15(5):1056-1066. ). Locomotor activity as well as anxiety and depression-like behaviours in old mice were evaluated using OF. This test was used as habituation of NOR test. In brief, on the first day, the mice were placed individually for 10 min in a 45x45-cm plastic box with vertical opaque walls. Each session was recorded and different data like distance, speed, immobile time and time on center square of the box were analysed with Anymaze software. On the second day, mice were placed in the same box for 5 min, allowing them to explore two identical objects: A and B (two black rooks). […]

Dnmt1 = experiment: Western blot of Dnmt1 in hippocampal extracts; settings: western blot densitometry; versus vehicle
Method: as §1, §5
Mice were anesthetized with an intraperitoneal pentobarbital injection (Dolethal, 60 mg/kg body weight) and transcardially perfused with saline. […] Serial parasagittal sections ([…] thick) were cryoprotected in 30% sucrose solution in PB and stored in ethylene glycol/glycerol at […] until they were analyzed. […]

old mice (~20 months) [5] = experiment: Y maze test for spatial memory; settings: percentage of time in novel arm; single intrahippocampal injection; two weeks after surgery; versus vehicle
Method: as §1, with “performing. […]” for “performing.”
To assess spatial memory, an Y maze test based on published protocols with modifications (Kraeuter AK, et al. The Y-Maze for Assessment of Spatial Working and Reference Memory in Mice. Methods Mol Biol. 2019;1916:105-111. ) was performed. […] The number of entries into and the time spent in each arm, were registered from video recordings and analysed by AnyMaze software. […]

5-methycytosine (5mC) = experiment: DNA methylation immunofluorescence in hippocampal neurons; settings: versus vehicle
Method: as §1
as §2, with “After injections were completed, the skin was sutured and the animals were allowed to recover for 1 h on a heating pad before returning to the home cage. Mice remained in the home cage for an additional 1 week before the start of behavioral testing, being sacrificed 2 weeks after surgery.” left out
as §6

Sox2 = Sox2 expression in dentate gyrus, immunoreactivity; settings: different regions of dentate gyrus (hilus, GCL, SGZ); unique-dose injection in aged mice; versus vehicle
Method: as §1
as §3, with “bit. Stereotaxic coordinates used for intrahippocampal injections were as follows (from bregma): anterior-posterior 2.2, lateral 1.4, dorsoventral 2.0.” for “bit.”

Molecule	recognition memory at short term (old mice (~20 months) [1])	recognition memory at long-term (old mice (~20 months) [1])	expression of GluN2B immunoreactivity (percentage of area occupied) (GluN2B)	doublecortin-ir cell density [2]	early neuronal precursor like blbp-ir cells density [2]	new born CIdU-ir cells density [2]	one-week-old neurons (double Dcx/CldU-ir cells) density [2]	PNN density labeled with WFA (perineuronal nets (PNN))	level of 5hmc [3]	level of methylation at H3K9me3 (H3K9me3)	level of methylation at H4K20me3 (H4K20me3)	anxiety-depression like behavior (central square time) (old mice (~20 months) [4])	locomotor activity (distance travelled, speed and immobile time) (old mice (~20 months) [4])	expression of Dnmt1 hippocampal levels (Dnmt1)	spatial memory (old mice (~20 months) [5])	level of 5mC, mean intensity (5-methycytosine (5mC); granular neuronal layer of dentate gyrus (P=0.0132))	level of 5mC, mean intensity (5-methycytosine (5mC); pyramidal layer of CA1 (P-value=0.06))	level of 5mC, mean intensity (5-methycytosine (5mC); pyramidal layer of CA3 (P-value=0.05))	SOX2 expression (Sox2)
Nc1nc2ncc(CNc3ccc(C(=O)N[C@@H](CCC(=O)O)C(=O)O)cc3)nc2c(=O)[nH]1 [folate, folic acid]	not significant differences	improves	increase	neither found differences	subtle but non-significant tendency of increase	subtle but non-significant tendency of increase	subtle but non-significant tendency of increase	significant reduction	not significant changes	does not modify	does not modify	improvement	improvement	increased	improvement	significant changes	important tendency	important tendency	–
CTVRTSAEC (source 1..9: organism (original language) = constructo sintetico) [FRa binding peptide]	Not significant differences	significant improvement	increase	–	–	–	–	reducing the density	–	–	–	–	–	–	–	–	–	–	significant increase
Vitamin B12	not revealed significant differences	not revealed significant differences	–	–	–	–	–	–	–	–	–	not revealed any alteration	not revealed any alteration	–	not revealed significant differences	–	–	–	–
